Measurements: US6471948B1 (Church & Dwight Co. Inc., priority 2000, dated 2002)

Experiment: Cetylpyridinium chloride adsorption on mucin-coated hydroxyapatite disks, HPLC of extract
Assay type: physicochemical
Conditions: for % Activity: relative to no surfactant
Method: Disks of hydroxyapatite (HAP) measuring 0.5 inch diameter and 0.04 inch thick were obtained from Clarkson Chromatography Products (Williamsport, Penn.). The disks were hydrated in deionized water for one hour and then allowed to air dry.
A 1% dispersion of bovine submaxillary mucin (type 1S, from Sigma) was then prepared. The HAP disks were then soaked in the 1% mucin dispersion overnight. The disks were then allowed to air dry for al least 2 hours. These disks, composed of HAP on which was deposited a layer of mucin, represented an oral surface.
The disks were soaked in 5 ml of the test solution for 10 minutes in a polystyrene petri dish (35 mm diameter×10 mm deep, from Becton Dickinson). The disks were then removed, rinsed for 3 seconds with deionized water on each side with a wash bottle.
The extractant solution is composed of 60 parts of a 20 mM phosphate buffer and 40 parts methanol, in which is dissolved 30 mM cetyltrimethylammonium bromide. The disks were soaked in 5 ml of the extractant solution for 2 hours.

[1] = Example 2: test solution as Example 1, also 0.125% by weight sodium bicarbonate
[2] = Example 1: test solution 0.125% cetylpyridinium chloride + 0.9% surfactant, disks soaked 10 minutes
[3] = Example 1: test solution 0.125% cetylpyridinium chloride + 0.9% surfactant

Compound: CCCCCCCCCC[NH2+][O-] [Decylamine oxide]
- CPC adsorbed [1]: 39.1 μg/disk
- % Activity [1]: 62.7%

Compound: CCCCCCCC[NH2+][O-] [Octylamine oxide]
- CPC adsorbed [1]: 47.4 μg/disk
- % Activity [1]: 76.0%

Compound: Cocamidopropyl betaine
- CPC adsorbed [2]: 41.8 μg/disk
- % Activity [3]: 70.4%
- cetylpyridinium chloride absorbed (in words) (Example 1 test solutions): clearly superior
- CPC adsorbed [1]: 41.2 μg/disk
- % Activity [1]: 66.0%

Compound: Cocoamphodiacetate
- CPC adsorbed [2]: 8.0 μg/disk
- % Activity [3]: 13.5%

Compound: Cocobetaine
- CPC adsorbed [1]: 48.8 μg/disk
- % Activity [1]: 78.2%

Compound: Dodecyl-Amphodiacetate
- CPC adsorbed [1]: 10.6 μg/disk
- % Activity [1]: 17.0%

Compound: Dodecyl-Iminodipropionate
- CPC adsorbed [1]: 7.4 μg/disk
- % Activity [1]: 11.9%
